In US4525356A, “N-substituted flavone-8-carboxamides” (Hokuriku Pharmaceutical Co., Ltd., priority 1982, dated 1985):

How the values were obtained:
urinary reflex = test: Supression of urinary reflex (bladder balloon, intraduodenal administration); type: in vivo, male Wister rats; conditions: for ED50: Rattus norvegicus, 50% effective dose, suppression of urinary reflex by more than 50%, up and down method, anesthetized male Wister rats, via duodenum, read-out: ID50 (the source's name); for Ratio of Effect: from ID50, Effect of Reference (Reference 1) defined as 1.00
Protocol: According to the method of Kaseda et al. (Rinsho Seiri, 5, 540 (1975)), male Wister rats, weighing approximately 300 g and fasted for 15 to 20 hours prior to experiments, were anesthetized by intraperitoneal injection of 500 mg/Kg of urethane and 50 mg/Kg of α-chloralose, and fixed to a supine position. Then the lower abdomen was opened through a midline incision to expose the bladder, and a balloon (1.5 to 2.0 cm^3) was inserted into the urinary bladder via small incision in the base thereof. The change of inner pressure is recorded via pressure transducer. The urinary reflex was induced by elevating the inner pressure to 10 to 20 cm H2 O. Urine was excreted from the incision of the bladder, where balloon was inserted.
The test compounds were given through polyethylene tube inserted into duodenum via an incision in the fundus.
Mean value of contraction according to the urinary reflex appeared during ten minutes before the administration of the compounds, and at 15, 30, 45 and 60 minutes thereafter, have been investigated for the determination of the effect of the present compounds. The mean value suppressed by more than 50% compared to the initial value has been estimated as effect. ID50 (50% effective dose) was obtained by up and down method.

in vitro = in vitro ADME, male Wister rats; conditions: rat, pH 6; for Ratio of Effect (T 1/2): 50 uM; for half-life at 50 µM: small intestinal mucosa homogenate
Protocol: (2) Stability in acidic medium (corresponding to artificial small intestinal juice)
After sacrificing male Wister rats (weighing approximately 300 g), small intestine was taken out and small intestinal mucous membrane was scraped off, and 20 ml of 0.1M phosphate buffer (pH 6.00) were added per 0.5 g of small intestinal mucous membrane (wet weight) to give 2.5% of homogenate.
Test compound was dissolved in the homogenate to give definite concentration (50 uM). With shaking of the obtained mixture at 37° C., sampling was carried out from time to time, and the content of each compound was quantitatively measured by analyzing peak height of each compound by a reversed-phase high performance liquid chromatography. The half-life time of each compound in acidic medium (corresponding to artificial small intestinal juice, pH 6.0) was measured from a graph indicating content change of each compound against time.
The compounds of the present invention and flavoxate (Reference 1) should be absorbed, after p.o. administation, in the small intestine to show medical effect. Therefore, the stability of the compounds against the hydrolyzation according to the nonspecific esterase contained in small intestinal mucous membrane is very important.

Compound | Ratio of Effect (T 1/2) (in vitro) | half-life at 50 µM (in vitro) [days] | ED50 (urinary reflex) [mg/kg] | Ratio of Effect (urinary reflex)
Cc1c(-c2ccccc2)oc2c(C(=O)NCC(C)N3CCCCC3)cccc2c1=O (stereo not drawn) [Compound 4] | 1276.9 | 32.5 | 46.7 | 5.83
CCN(CC)CCN(C)C(=O)c1cccc2c(=O)c(C)c(-c3ccccc3)oc12 [Compound 3] | 252.1 | 6.41 | 46.7 | 5.83
Cc1c(-c2ccccc2)oc2c(C(=O)O)cccc2c1=O [Reference 3, reference compound] | – | – | 308 | 0.89
CCN(CC)CCNC(=O)c1cccc2c(=O)c(C)c(-c3ccccc3)oc12 [Compound 1] | 1066.1 | 27.1 | 36.7 | 7.42
Cc1c(-c2ccccc2)oc2c(C(=O)NCCN3CCCCC3)cccc2c1=O [Compound 2] | 475.4 | 12.1 | 26.8 | 10.16

Now from value to molecule, other results behind:

Ratio of Effect (T 1/2) (in vitro) | half-life at 50 µM (in vitro) [days] | Compound | ED50 (urinary reflex) [mg/kg] | Ratio of Effect (urinary reflex)
2.3 | 0.0579 | CCN(CC)CCOC(=O)c1cccc2c(=O)c(C)c(-c3ccccc3)oc12 [Reference 2, reference compound] | 325 | 0.84
1177.4 | 29.9 | CCN(CC)CCNC(=O)c1cccc2c(=O)c(C)c(-c3ccc(OC)cc3)oc12 [Compound 5] | 93.3 | 2.92
1.0 | 0.0254 | Cc1c(-c2ccccc2)oc2c(C(=O)OCCN3CCCCC3)cccc2c1=O [Reference 1, flavoxate, reference compound] | 272 | 1.00
